{"source": "a melting point compilation (Tetko et al.; mined from patent text by program, amines drawn as free bases though some values may be those of a salt)", "note": "Residues, ends and D or L forms follow the SMILES beside them. *: point of attachment. Tos = Cc1ccc(S(=O)(=O)*)cc1"}
{"units": {"melting point": "°C"}}
{"molecule": "Cc1nnc(-c2ccc3occ(-c4ccc(OCCS(C)(=O)=O)cc4)c3c2)o1", "melting point": "132 to 133"}
{"molecule": "CCOC(=O)Nn1c(C)ccc1C(=O)c1ccccc1Cl", "melting point": "82 to 84"}
{"molecule": "Brc1ccc2[nH]c(-c3ccccc3)c(CCN3CCCCC3)c2c1", "melting point": "121 to 122"}
{"molecule": "CCOP(=O)(NN=C(c1ccc(Cl)cc1)c1ccc(OS(C)(=O)=O)cc1)OCC", "melting point": "90 to 91"}
{"molecule": "COC(=O)C(C(=O)OC)C(Cc1cc(C(F)(F)F)ccc1[N+](=O)[O-])c1ccc(OC)cc1", "note": "(stereo not drawn)", "melting point": "110 to 112"}
{"molecule": "CN(C)C=Nc1[nH]nc(Nc2cccc(Cl)c2)c1C#N", "melting point": "> 260"}
{"molecule": "COc1ccc(-c2cc(=O)n(CCC(=O)NCc3ccccc3)nc2-c2ccc(OC)cc2)cc1", "melting point": "135 to 137"}
{"molecule": "Cc1cc(SC(C)C)c(NC(=O)CCCCSc2nc3cccc(C(F)(F)F)c3o2)c(SC(C)C)n1", "melting point": "118 to 120"}
{"molecule": "O=CC1=CCC(C=CC(=O)O)C=C1", "note": "(stereo not drawn)", "melting point": "134 to 138"}
{"molecule": "O=C(CF)NOC(=O)C(F)(F)F", "melting point": "56 to 59"}
{"molecule": "CN(C)C(=S)SC(C[N+](=O)[O-])c1ccc2c(c1)OCO2", "note": "(stereo not drawn)", "melting point": "122 to 124"}
{"molecule": "O=C(O)c1ccc(Cc2ccccc2)cn1", "melting point": "145 to 147"}
{"molecule": "N#CCCNC(=O)c1cccc(-c2cccc(OC3CCCCC3)n2)c1", "melting point": "131 to 132"}
{"molecule": "CCOC(=O)c1cccc(C2COc3c(ccc(O)c3C)C2)c1", "note": "(stereo not drawn)", "melting point": "143 to 144"}
{"molecule": "O=C(Oc1ccc(C(=C2CCCCC2)c2ccc(OC(=O)c3ccccc3)c(OC(=O)c3ccccc3)c2)cc1OC(=O)c1ccccc1)c1ccccc1", "melting point": 176}
{"molecule": "CCOCc1nc2c(N)nc3cc(OCc4ccccc4OC)ccc3c2n1CC(C)C", "melting point": "206 to 207"}
{"molecule": "CCCC(=O)c1cnc2c(OCCOCCO)cccc2c1Nc1ccc(F)cc1C", "melting point": "144 to 145"}
{"molecule": "CC(C)(C)[Si](C)(C)O[C@@H]1c2sccc2[C@]2(O[Si](C)(C)C(C)(C)C)C[C@H]1OC2=O", "melting point": "133 to 137"}
{"molecule": "CCN1CC(=O)N(c2cc(Cl)ccc2C)C1=S", "melting point": "152 to 154"}
{"molecule": "N#Cc1ccc(-c2cn(-c3ccc(C#N)cc3)c(SCc3cccnc3)n2)cc1", "melting point": "218 to 225"}
{"molecule": "CC1(C)CC(SCc2c(C(F)(F)F)n[nH]c2Cl)=NO1", "melting point": "120 to 122"}
{"molecule": "COc1ccc2c(CCC(=O)O)nnc(-c3nccs3)c2c1", "melting point": "228 to 229"}
{"molecule": "CSC(C)=NOC(=O)NCSN(P1OCC(C)(C)CO1)C(C)(C)C", "melting point": "167 to 168"}
{"molecule": "Cc1ccc(S(=O)(=O)N2CCC[C@H]2C(=O)N[C@@H](C)C(=O)O)cc1", "note": "(Tos-Pro-Ala-OH)", "melting point": "160 to 162"}
{"molecule": "Fc1ccc(-c2cc(Br)sc2-c2ccc(F)cc2)cc1", "melting point": "91 to 93"}
{"molecule": "C[C@@H](n1cnc2cc(OCC(F)F)ccc2c1=O)[C@](O)(Cn1cncn1)c1ccc(F)cc1F", "melting point": "96 to 102"}
{"molecule": "NC(=O)c1ccnc(NC(=O)N2CCC3(CCc4cc(F)ccc4O3)CC2)c1", "melting point": "265 to 267"}
{"molecule": "C=C(C)C(=O)NC1=NN(c2ccc(Cl)c(Cl)c2)C(=O)C1", "melting point": "212 to 213"}
{"molecule": "Nc1ncc(-c2ccccc2)c(N)n1", "melting point": "162 to 164"}
{"molecule": "CCOC(=O)C=C1CCC(C#N)(c2ccc(OC)c3c2OCCO3)CC1", "note": "(stereo not drawn)", "melting point": "110 to 112"}
{"molecule": "CN1CCN(S(=O)(=O)NC(Cc2ccccc2)C(=O)O)CC1", "note": "(stereo not drawn)", "melting point": "> 200"}
{"molecule": "CCCCOc1nccnc1C1(O)CN2CCC1CC2", "note": "(stereo not drawn)", "melting point": "107 to 108"}
{"molecule": "CCOC(=O)C1=NN(c2cccc3ccccc23)C(C(=O)OCC)=NN1c1ccccc1", "melting point": "124 to 125"}
{"molecule": "Cc1onc2c1NC(=O)COC2(C)c1ccccc1", "note": "(stereo not drawn)", "melting point": "177 to 178"}
{"molecule": "Cc1ccc(S(=O)(=O)NCc2nc(C(C)C)c(Sc3cc(Cl)cc(Cl)c3)n2C)cc1", "melting point": "85 to 87"}
{"molecule": "CC(C)(C)OC(=O)N[C@@H](CC(=O)OCc1ccccc1)C(=O)NCCc1ccc(C(=O)OCc2ccccc2)cc1", "melting point": "99 to 100"}
{"molecule": "CCOC(=O)c1cccc(-c2ccc(Cl)c3cc(CO)sc23)c1", "melting point": "119 to 120"}
{"molecule": "CN1CCC(c2cccc3ccc(-c4cncnc4)cc23)CC1", "melting point": "122 to 123"}
{"molecule": "CC1(C)Oc2ccc(C#N)cc2[C@@H](N2CC(OCc3ccccc3)=CC2=O)[C@@H]1O", "note": "(relative stereo)", "melting point": 248}
{"molecule": "CN(C)c1ccc(-c2cc(F)c(F)cc2-c2ccc(S(C)(=O)=O)cc2)cc1Cl", "melting point": "129 to 130"}
{"molecule": "CC(C)c1[nH]c2ccccc2c1C=C1SC(=S)N(CC(=O)O)C1=O", "melting point": "259 to 260"}
{"molecule": "O=c1[nH]c2ncc(-c3ccn[nH]3)nc2n1CC1CCCCC1", "melting point": "264 to 266"}
{"molecule": "Cc1ccc(S(=O)(=O)OCC(C)(O)C(=O)c2ccccc2)cc1", "note": "(stereo not drawn)", "melting point": "88 to 90"}
{"molecule": "O=C(N[C@H]1CC[C@H](CCN2CCC(c3cccc4c3CCO4)CC2)CC1)c1ccnc2ccccc12", "melting point": 211}
{"molecule": "COc1ccccc1-c1nc(=S)n(Cc2ccccc2)[nH]1", "melting point": "142 to 144"}
{"molecule": "C=CCOc1cccc(C(=O)CCC(=O)OC)c1", "melting point": "30 to 32.5"}
{"molecule": "N#Cc1ccc(-c2ccc(OCC(CN3C(=O)c4ccccc4C3=O)N(O)C=O)cc2)cc1", "note": "(stereo not drawn)", "melting point": "199 to 202"}
{"molecule": "C[C@@H](NC(=O)OCc1ccccc1)[C@H](O)C(=O)O", "melting point": "156 to 158"}
{"molecule": "CCOC(=O)C(=CNc1ncnc2ccc(N3CCN(C)CC3)cc12)C(=O)OCC", "melting point": "154 to 159"}
{"molecule": "CN(C)c1ccc2cc(-c3ccnc(SCCO)c3C#N)ccc2c1", "melting point": "210 to 212"}
{"molecule": "CCCCCCCCCN1C(=O)c2ccc3c4cccc5cccc(c6ccc(c2c36)C1=O)c54", "melting point": 201}
{"molecule": "N#Cc1c2c(cc3ccc(O)cc13)-c1ccc(O)cc1CO2", "melting point": "> 280"}
{"molecule": "c1ccc(Nc2nc(-c3cccnc3)nc3ccccc23)cc1", "melting point": "173 to 178"}
{"molecule": "Cc1nn(C)c(C)c1Nc1ccc([N+](=O)[O-])cc1[N+](=O)[O-]", "melting point": 153}
{"molecule": "Cn1ccn(CO)c1=O", "melting point": "102 to 104"}
{"molecule": "CCCN(CCC)c1ccc2nc3c4ccccc4c(=Nc4ccncc4)cc-3oc2c1", "melting point": "215 to 216"}
{"molecule": "O=c1[nH]c2ccccc2c2nc(-c3ccccc3)cn12", "melting point": "278 to 280"}
{"molecule": "Fc1ccc(CN2CC=C(/C=C/c3ccccc3)CC2)cc1", "melting point": "115 to 117"}
{"molecule": "CC(C)(C)OC(=O)N1CCC(CNC(=O)[C@@H]2CCCN2C(=O)OCc2ccccc2)CC1", "melting point": 50}
{"molecule": "COc1cc(COc2cc(C=O)n(-c3ccccc3)n2)ccc1OCc1nc(-c2ccco2)oc1C", "melting point": "103 to 104"}
{"molecule": "CCCCCCCCCCCCCCOc1ccc(CC(=O)Nc2cccc(I)c2)cc1", "melting point": "108 to 110"}
{"molecule": "CCCOc1ccccc1-c1nc2nc(NCCN(C)C)ncc2c(=O)[nH]1", "melting point": "181 to 182"}
{"molecule": "CCOC(=O)c1ccc(OCC2CN(c3ccc(S(C)(=O)=O)nn3)CCO2)cc1", "note": "(stereo not drawn)", "melting point": 197}
{"molecule": "CC(=O)NC(n1ccnc1)C(Cl)(Cl)CCl", "note": "(stereo not drawn)", "melting point": "151 to 154"}
{"molecule": "COc1ccc(-c2cnc3c(-c4ccccc4)nc(-c4cccc(OC)c4)nc3c2)cc1", "melting point": "131 to 132"}
{"molecule": "CC(C)Oc1nc(N)nc2c1ncn2CCC(CO)CO", "melting point": "112 to 114"}
{"molecule": "Oc1ccc(C2Oc3ccccc3C=C2c2ccc(OC3CCCCO3)cc2)cc1", "note": "(stereo not drawn)", "melting point": 110}
{"molecule": "CCOC(=O)C1=C(CCl)NC(C)=C(C(=O)OC)C1c1cccc([N+](=O)[O-])c1", "note": "(stereo not drawn)", "melting point": "119 to 120"}
{"molecule": "O=C(C=CC=C(c1ccc(Cl)cc1)c1ccc(Cl)cc1)Nc1ccc(C(=O)O)cc1", "melting point": "273 to 276"}
{"molecule": "COC(=O)c1ccc(OCC(O)c2ccc3c(c2)C(C)(C)CCC3(C)C)cc1O", "note": "(stereo not drawn)", "melting point": "133 to 134"}
{"molecule": "Cn1cc(C(=O)OCC23CCCN(CC2)C3)c2ccccc21", "note": "(stereo not drawn)", "melting point": "94.5 to 96.5"}
{"molecule": "COc1ccc(-c2cc(Cl)c3ccccc3n2)cc1Cl", "melting point": "113 to 116"}
{"molecule": "O=C(NO)[C@H](CNS(=O)(=O)c1ccc(OCc2c(C(F)(F)F)nn3ccccc23)cc1)N1CCN(Cc2ccccc2)CC1", "melting point": 138}
{"molecule": "COc1cccc(Cl)c1CBr", "melting point": "44 to 47"}
{"molecule": "COc1cc(NS(=O)(=O)c2ccc(Cl)cc2)c(C(=O)Nc2ccc(S(=O)(=O)F)cc2)cc1OC", "melting point": "216 to 219"}
{"molecule": "COCCNC(=O)c1cccc(-c2cccc3cc(Cc4cccc(N(C)C)c4)sc23)c1", "melting point": "92 to 93"}
{"molecule": "CC(=O)Nc1ccc2c(c1)c(C1=C(c3cn(C)c4ccccc34)C(=O)NC1=O)cn2C", "melting point": "276 to 279"}
{"molecule": "N#Cc1cccc(-c2ccc3c(Cl)cnc(Cl)c3c2)c1", "melting point": "> 300"}
{"molecule": "COc1ccc(S(=O)(=O)N2C(=O)C(O[Si](C)(C)C)(c3ccccc3OC)c3cc(Cl)ccc32)c(OC)c1", "note": "(stereo not drawn)", "melting point": "157 to 158"}
{"molecule": "Cc1cc(CCCCCOc2ccc(C3=NCCO3)cc2)on1", "melting point": "102 to 104"}
{"molecule": "COc1cn(C)c(=O)c(O)n1", "melting point": "201 to 204"}
{"molecule": "COc1ccc2[nH]c(S(=O)Cc3cc(N(C)C)ncn3)nc2c1", "note": "(stereo not drawn)", "melting point": "104 to 106"}
{"molecule": "CSCC(C)(C)NC(=O)c1c(I)cccc1Oc1ncc(C(F)(F)F)cc1Cl", "melting point": "83 to 85"}
{"molecule": "CC(C)N1CCN(c2cccc(N)c2)C(=O)C1", "melting point": "114 to 115"}
{"molecule": "COC(=O)c1cc(OC)c(O)cc1-c1c(C(=O)OC)ccc2c1OCO2", "melting point": "172 to 173"}
{"molecule": "COC(=O)N(C(S)=NC(C)C)c1c(C(C)C)cccc1C(C)C", "melting point": "98 to 99"}
{"molecule": "CCOC(=O)Nc1ccccc1NS(=O)(=O)c1ccc(OC)cc1", "melting point": "118 to 119"}
{"molecule": "COc1ccc2sc3c(c2c1)OC(C)CNC3=O", "note": "(stereo not drawn)", "melting point": "185 to 186"}
{"molecule": "CS(=O)(=O)c1ccc(-n2nc(CNC(=O)Nc3ccc(C(F)(F)F)cc3)cc2-c2ccccc2)cc1", "melting point": "129 to 132"}
{"molecule": "CS(=O)(=O)C(=C1CN(C(c2ccccc2)c2ccccc2)C1)c1cccc2ccccc12", "melting point": 196}
{"molecule": "CCOC(=O)c1ccccc1OCNC(=O)CCCCCNC(=O)OC(C)(C)C", "melting point": "120 to 121"}
{"molecule": "CCCCCC1CCC(c2ccc(-c3cc(F)c(N)cc3F)cc2)CC1", "note": "(stereo not drawn)", "melting point": "68.3 to 70.4"}
{"molecule": "Cc1nc(N)c2nc(C)n(NC(C)C)c2c1C", "melting point": "203 to 205"}
{"molecule": "COc1ccc(Oc2c(-c3ccc(S(C)(=O)=O)cc3)cnn(-c3cccc(Cl)c3)c2=O)cc1", "melting point": "182 to 184"}
{"molecule": "Cc1ccc(C(=O)O)c(Sc2nc(C)c(CC(=O)O)s2)n1", "melting point": "223 to 225"}
{"molecule": "CCCc1c(OCCCCC(=O)c2ccc3cc(OC)c(OC)cc3c2)ccc(C(=O)O)c1O", "melting point": "177 to 178"}
{"molecule": "CN1CNC(=S)N(c2ccc([N+](=O)[O-])cc2)C1", "melting point": "170 to 172"}
{"molecule": "CCC[C@@](CCc1ccccc1)(CC(=O)OCOc1ccc(-c2ccccc2)cc1)OCOc1ccc(-c2ccccc2)cc1", "melting point": "104 to 106"}
